Relative viability data for seven cell lines are collected here from the supplement of paper PMC10307832.

What all share (assay): relative viability (nuclei count vs DMSO), 5 days (fraction); higher = more cells survive
Compound in the experiment “Cediranib + Crizotinib”: COc1cc2c(Oc3ccc4[nH]c(C)cc4c3F)ncnc2cc1OCCCN1CCCC1 [Cediranib] + C[C@@H](Oc1cc(-c2cnn(C3CCNCC3)c2)cnc1N)c1c(Cl)ccc(F)c1Cl [Crizotinib] (partner 1 µM)
The method, boiled down:
(§1)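 Lung cancer cell lines in 1536-well plates were dosed by pin tool the day after seeding, either with one drug alone or with a fixed anchor-drug dose plus five library-drug doses (not always all listed) in √10 steps. After 5 days, cells were fixed and their nuclei stained in one step (final 0.05% Triton X-100, 1% formaldehyde, 1 ug/ml Hoechst), then counted on 4× images. Relative viability is the nuclei count in treated wells divided by that in vehicle wells. Values are medians of duplicate plates.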

Compound in experiment [1]: O=C(C[C@H]1NCCC[C@@H]1O)Cn1cnc2cc(Br)c(Cl)cc2c1=O (racemic) [Halofuginone] + CC1(C)CCC(c2ccc(Cl)cc2)=C(CN2CCN(c3ccc(C(=O)NS(=O)(=O)c4ccc(N[C@H](CCN5CCOCC5)CSc5ccccc5)c(S(=O)(=O)C(F)(F)F)c4)cc3)CC2)C1 [Navitoclax] (partner 0.5 µM)
Put shortly: as §1

Compound in experiment [2]: O=C(C[C@H]1NCCC[C@@H]1O)Cn1cnc2cc(Br)c(Cl)cc2c1=O (racemic) [Halofuginone] + CC(C)C[C@H](NC(=O)[C@H](Cc1ccccc1)NC(=O)c1cnccn1)B(O)O [Bortezomib] (partner 0.002 µM)
Put shortly: as §1

Compound in experiment [3]: O=C(C[C@H]1NCCC[C@@H]1O)Cn1cnc2cc(Br)c(Cl)cc2c1=O (racemic) [Halofuginone] + Nc1ncn([C@H]2C[C@H](O)[C@@H](CO)O2)c(=O)n1 [Decitabine] (partner 2 µM)
Put shortly:
as §1

Regarding NCI-H23, the relative viability was found to be 0.472 with Cediranib + Crizotinib (first compound 0.04 µM); 0.557 with Cediranib + Crizotinib (first compound 0.4 µM); 0.518 in the experiment with Cediranib + Crizotinib (first compound 1.265 µM); 0.597 with Cediranib + Crizotinib (first compound 4 µM); 0.893 in experiment [1] (first compound 0.001 µM); 0.966 in experiment [1] (first compound 0.003162 µM). In addition, the relative viability was 0.795 in experiment [1] (first compound 0.01 µM); 0.798 in experiment [1] (first compound 0.03162 µM); 0.377 in experiment [1] (first compound 0.1 µM); 1 in experiment [2] (first compound 0.001 µM); 1.24 in experiment [2] (first compound 0.003162 µM); 1.02 in experiment [2] (first compound 0.01 µM). The relative viability in experiment [2] (first compound 0.03162 µM) was 0.947; in experiment [2] (first compound 0.1 µM), 0.494; in experiment [3] (first compound 0.001 µM), 0.333; in experiment [3] (first compound 0.003162 µM), 0.314; in experiment [3] (first compound 0.01 µM), 0.313; in experiment [3] (first compound 0.03162 µM), 0.346. Moreover, in experiment [3] (first compound 0.1 µM), the relative viability came to 0.273.
For NCI-H1975, the relative viability with Cediranib + Crizotinib (first compound 0.04 µM) is 1.16; with Cediranib + Crizotinib (first compound 0.1265 µM) it was 1.05; in the experiment with Cediranib + Crizotinib (first compound 0.4 µM), 0.92; with Cediranib + Crizotinib (first compound 1.265 µM), 1.02; with Cediranib + Crizotinib (first compound 4 µM), 0.913; in experiment [1] (first compound 0.001 µM), 1.2. The relative viability in experiment [1] (first compound 0.003162 µM) was 1.08; in experiment [1] (first compound 0.01 µM), 1.1; in experiment [1] (first compound 0.03162 µM), 0.554; in experiment [1] (first compound 0.1 µM) it was 0.205; in experiment [2] (first compound 0.001 µM), 0.432; in experiment [2] (first compound 0.003162 µM), 0.383. In addition, the relative viability came to 0.402 in experiment [2] (first compound 0.01 µM); 0.339 in experiment [2] (first compound 0.03162 µM); 0.168 in experiment [2] (first compound 0.1 µM); 0.4 in experiment [3] (first compound 0.001 µM); 0.408 in experiment [3] (first compound 0.003162 µM); 0.436 in experiment [3] (first compound 0.01 µM). Also, the relative viability came out at 0.385 in experiment [3] (first compound 0.03162 µM) and 0.285 in experiment [3] (first compound 0.1 µM).
Consider COR-L 105, for which the relative viability with Cediranib + Crizotinib (first compound 0.1265 µM) worked out at 0.842; with Cediranib + Crizotinib (first compound 0.4 µM), 0.832; with Cediranib + Crizotinib (first compound 1.265 µM) it was 0.716; with Cediranib + Crizotinib (first compound 4 µM) it was 0.695; in experiment [1] (first compound 0.001 µM), 0.939; in experiment [1] (first compound 0.003162 µM), 0.396. Also, the relative viability was 0.733 in experiment [1] (first compound 0.01 µM); 0.595 in experiment [1] (first compound 0.03162 µM); 0.46 in experiment [1] (first compound 0.1 µM); 1.01 in experiment [2] (first compound 0.001 µM); 0.86 in experiment [2] (first compound 0.003162 µM); 0.769 in experiment [2] (first compound 0.01 µM). For the same cell line, the relative viability in experiment [2] (first compound 0.03162 µM) was 0.674; in experiment [2] (first compound 0.1 µM), 0.44; in experiment [3] (first compound 0.001 µM) it was 0.673; in experiment [3] (first compound 0.003162 µM) it was 0.791; in experiment [3] (first compound 0.01 µM), 0.63; in experiment [3] (first compound 0.03162 µM), 0.598. The relative viability in experiment [3] (first compound 0.1 µM) came to 0.568.
Turning to EKVX, the relative viability in the experiment with Cediranib + Crizotinib (first compound 0.04 µM) amounted to 0.933; in the experiment with Cediranib + Crizotinib (first compound 0.1265 µM), 0.92; with Cediranib + Crizotinib (first compound 0.4 µM), 0.936; with Cediranib + Crizotinib (first compound 1.265 µM) it was 0.895; in the experiment with Cediranib + Crizotinib (first compound 4 µM), 0.975; in experiment [1] (first compound 0.001 µM), 1.06. Also, the relative viability in experiment [1] (first compound 0.003162 µM) came to 0.971; in experiment [1] (first compound 0.01 µM), 0.984; in experiment [1] (first compound 0.03162 µM), 0.905; in experiment [1] (first compound 0.1 µM), 0.797; in experiment [2] (first compound 0.001 µM) it was 1.15; in experiment [2] (first compound 0.003162 µM) it was 1.02. Further, the relative viability amounted to 1.05 in experiment [2] (first compound 0.01 µM); 1.01 in experiment [2] (first compound 0.03162 µM); 0.935 in experiment [2] (first compound 0.1 µM); 0.317 in experiment [3] (first compound 0.001 µM); 0.313 in experiment [3] (first compound 0.003162 µM); 0.281 in experiment [3] (first compound 0.01 µM). The relative viability was 0.354 in experiment [3] (first compound 0.03162 µM) and 0.276 in experiment [3] (first compound 0.1 µM).
For NCI-H2009, the relative viability with Cediranib + Crizotinib (first compound 0.04 µM) was determined as 1.12; with Cediranib + Crizotinib (first compound 0.1265 µM) it was 1.03; with Cediranib + Crizotinib (first compound 0.4 µM), 0.989; with Cediranib + Crizotinib (first compound 1.265 µM), 1.06; in the experiment with Cediranib + Crizotinib (first compound 4 µM), 1.04; in experiment [1] (first compound 0.001 µM), 1.22. For the same cell line, the relative viability in experiment [1] (first compound 0.003162 µM) turned out to be 1.13; in experiment [1] (first compound 0.01 µM) it was 1.09; in experiment [1] (first compound 0.03162 µM) it was 1.02; in experiment [1] (first compound 0.1 µM), 0.67; in experiment [2] (first compound 0.001 µM), 1.07; in experiment [2] (first compound 0.003162 µM), 1.28. The relative viability was 0.95 in experiment [2] (first compound 0.01 µM); 0.799 in experiment [2] (first compound 0.03162 µM); 0.32 in experiment [2] (first compound 0.1 µM); 0.343 in experiment [3] (first compound 0.001 µM); 0.332 in experiment [3] (first compound 0.003162 µM); 0.403 in experiment [3] (first compound 0.01 µM). The relative viability in experiment [3] (first compound 0.03162 µM) is 0.415; in experiment [3] (first compound 0.1 µM) it was 0.308.
In the case of NCI-H838, the relative viability with Cediranib + Crizotinib (first compound 0.04 µM) was 0.798; in the experiment with Cediranib + Crizotinib (first compound 0.1265 µM) it was 0.898; in the experiment with Cediranib + Crizotinib (first compound 0.4 µM) it was 0.817; in the experiment with Cediranib + Crizotinib (first compound 1.265 µM), 0.811; with Cediranib + Crizotinib (first compound 4 µM), 0.748; in experiment [1] (first compound 0.001 µM), 1.17. The relative viability in experiment [1] (first compound 0.003162 µM) amounted to 1.24; in experiment [1] (first compound 0.01 µM), 0.994; in experiment [1] (first compound 0.03162 µM) it was 0.954; in experiment [1] (first compound 0.1 µM) it was 0.208; in experiment [2] (first compound 0.001 µM) it was 1.16; in experiment [2] (first compound 0.003162 µM), 1.03. The relative viability in experiment [2] (first compound 0.01 µM) turned out to be 0.746; in experiment [2] (first compound 0.03162 µM), 0.614; in experiment [2] (first compound 0.1 µM) it was 0.121; in experiment [3] (first compound 0.001 µM), 0.502; in experiment [3] (first compound 0.003162 µM), 0.465; in experiment [3] (first compound 0.01 µM), 0.445. In addition, the relative viability in experiment [3] (first compound 0.03162 µM) came to 0.458; in experiment [3] (first compound 0.1 µM) it was 0.281.
As for NCI-H2085, the relative viability was 0.888 with Cediranib + Crizotinib (first compound 0.04 µM); 0.927 in the experiment with Cediranib + Crizotinib (first compound 0.1265 µM); 0.876 in the experiment with Cediranib + Crizotinib (first compound 0.4 µM); 0.813 in the experiment with Cediranib + Crizotinib (first compound 1.265 µM); 0.868 with Cediranib + Crizotinib (first compound 4 µM); 1.1 in experiment [1] (first compound 0.001 µM). Moreover, the relative viability in experiment [1] (first compound 0.003162 µM) is 1.25; in experiment [1] (first compound 0.01 µM), 1.03; in experiment [1] (first compound 0.03162 µM) it was 1.02; in experiment [1] (first compound 0.1 µM), 0.74; in experiment [2] (first compound 0.001 µM), 1.07; in experiment [2] (first compound 0.003162 µM), 1.06. The relative viability is 1.04 in experiment [2] (first compound 0.01 µM); 0.9 in experiment [2] (first compound 0.03162 µM); 0.753 in experiment [2] (first compound 0.1 µM); 0.562 in experiment [3] (first compound 0.001 µM); 0.542 in experiment [3] (first compound 0.003162 µM); 0.546 in experiment [3] (first compound 0.01 µM). Moreover, the values for the relative viability in experiment [3] (first compound 0.03162 µM) and in experiment [3] (first compound 0.1 µM) were 0.581 and 0.52, respectively.
